Experimental findings from EP4813463A2, “TYK2 INHIBITORS AND COMPOSITIONS AND METHODS THEREOF” (Lynk Pharmaceuticals Co. Ltd., priority 2023, dated 2024) are described below.

Series [1] has as its system Anti-CD40-induced colitis. Nature of the series: SCID mice colitis by anti-CD40-driven pharmacodynamics study. The following applies: for Colon density / Colon length (cm) / Colon weight: Day 5, mean ± SEM, n = 10. Type of series: in vivo, C.B17-SCID mice. How it is done:
This study aimed to obtain the pharmacodynamics of the test article in colitis model by Anti-CD40-driven after oral administration. C.B17-SCID mice obtained from the Zhejiang Vital River Laboratory Animal Technology Co., Ltd. Starting on Day -1 and continuing daily through Day 4, mice (n = 10 per group) were dosed with 0 (vehicle control), 15, 45, or 100 mg/kg PO BID compound 7A in vehicle containing 5% DMSO, 65% PEG400, and 30% DDH2O (v/v/v). In addition, on Day 0, 30 minutes after administration, colitis was induced with a single intraperitoneal injection of 200 µL of anti-CD40 mAb (BE0016-2, BioXcell) in DPBS, the Sham group mice were intraperitoneally injected with 200 µL of DPBS.
Each mouse was scored daily for pathological features, including stool consistency, presence of blood stool, and body weight loss. Individual scores were combined to generate the Disease Activity Index (DAI) which was calculated daily for each mouse, the maximum score was 12. On Day 5, all animals were euthanized, colon was collected for measuring colon index (weight, length, and density).

Series [2] is described as follows: Pharmacokinetic study in dogs. Type of series: in vivo. Conditions: dog, plasma; Beagle dogs, intravenous, 2 mg/kg, solution. As to the method:
Pharmacokinetic profiles of test articles were evaluated in fasted mouse, Sprague-Dawley rats and Beagle dogs. After dosing, blood samples were collected at each time point. For IV injection group, time points were set at 5, 15, 30 min, and then 1, 2, 4, 8 and 24 hours after dosing. For oral gavage group,#time points were set at 15, 30 min, and then 1, 2, 4, 8, and 24 hours. Blood was collected into appropriately labeled tubes containing K2EDTA as the anticoagulant. Plasma was obtained within 1 hours of blood collection by centrifugation at 8000×g and 4 °C for 6 minutes, and then stored at -20 °C until analyzed by LC/MS/MS for quantification. PK parameter values, including, but not necessarily limited to, the maximum plasma concentrations (Cmax), the time to reach the maximum concentrations (Tmax), and the area under the plasma concentration vs. time curve (AUC) from time zero to 24-hour (AUC0-24h) were determined using WinNonlin program. Table 17. Pharmacokinetic Parameters in Beagle dogs by Intravenous Administration

Regarding `[2H]C([2H])([2H])NC(=O)c1cnc(NC(=O)C2CC2)cc1Nc1cnn2ccc([C@H](O)C(F)(F)F)c(OC)c12` [Example 7A, (S)-6-(cyclopropanecarboxamido)-4-((4-methoxy-5-(2,2,2-trifluoro-1-hydroxyethyl)pyrazolo[1,5-a]pyridin-3-yl)amino)-N-(methyl-d3)nicotinamide], the “effect on Anti-CD40-induced colitis” value in series [1] (15, 45, or 100 mg/kg PO BID, result in words) is “significant protective effect”. In series [1] (15mpk PO BID), the “Colon density” value amounted to 46.99 ± 2.71 mg/cm, the “Colon length (cm)” value is 5.61±0.20 cm and the “Colon weight” value was 260.20 ± 10.58 mg. In series [1] (45mpk PO BID), the “Colon density” value was determined as 37.00 ± 1.36 mg/cm, the “Colon length (cm)” value is reported as 6.34±0.13 cm and the “Colon weight” value worked out at 234.20 ± 9.04 mg. Besides, in series [1] (100mpk PO BID), the “Colon density” value worked out at 29.23 ± 0.91 mg/cm, the “Colon length (cm)” value was 7.15±0.15 cm and the “Colon weight” value came to 208.40 ± 5.53 mg. Moreover, the body weight loss result in series [1] (FIG. 1. A, result in words) is recorded as “reduction”. In series [1] (FIG. 1. B, result in words), the DAI score entry is “reduction”.

Usually AUC stands for concentration integrated over time. The low end stands for low exposure, the high end for high exposure. As a reminder, the Vd is the apparent volume that relates the amount in the body to the concentration in plasma or blood. High values mean wide distribution into tissue, low ones little distribution into tissue. What is called clearance is the volume of plasma or blood freed of the substance per unit of time. A lower clearance goes with a low capacity for elimination. What is called half-life is the time in which the quantity being followed falls by half. A high value points to slow decline. In series [2], `[2H]C([2H])([2H])NC(=O)c1cnc(NC(=O)C2CC2)cc1Nc1nn(C)c2ccc([C@H](OC([2H])([2H])[2H])C(F)(F)F)c(OC)c12` [Example 55A, (S)-6-(cyclopropanecarboxamido)-4-((4-methoxy-1-methyl-5-(2,2,2-trifluoro-1-(methoxy-d3)ethyl)-1H-indazol-3-yl)amino)-N-(methyl-d3)nicotinamide] gave an AUC of 9980 ng·h/mL, a Vd of 0.678 L/kg, a clearance of 3.52 mL/min/kg and a half-life of 3.64 h.
